Measurements published in ChEMBL document CHEMBL4507278 (2021).

Columns and labels:
[1] = system: Tyrosine-protein kinase ABL1 (Homo sapiens), P00519 [F317I]; settings: Compound concentration 1000.0 nM
[2] = system: Tyrosine-protein kinase ABL1 (Homo sapiens), P00519 [T315I]; settings: Compound concentration 1000.0 nM
[3] = target: Tyrosine-protein kinase ABL2 (Homo sapiens) (UniProt P42684); settings: Compound concentration 1000.0 nM
[4] = target: Activin receptor type-1 (Homo sapiens) (UniProt Q04771); settings: Compound concentration 1000.0 nM
[5] = target: RAC-alpha serine/threonine-protein kinase (Homo sapiens) (UniProt P31749); settings: Compound concentration 1000.0 nM
[6] = system: ALK tyrosine kinase receptor (Homo sapiens), Q9UM73 [L1196M]; settings: Compound concentration 1000.0 nM
[7] = target: Calcium/calmodulin-dependent protein kinase type II subunit delta (Homo sapiens) (UniProt Q13557); settings: Compound concentration 1000.0 nM
[8] = target: Cyclin-dependent kinase 19 (Homo sapiens) (UniProt Q9BWU1); settings: Compound concentration 1000.0 nM
[9] = target: Death-associated protein kinase 3 (Homo sapiens) (UniProt O43293); settings: Compound concentration 1000.0 nM
[10] = target: Dual specificity tyrosine-phosphorylation-regulated kinase 1A (Homo sapiens) (UniProt Q13627); settings: Compound concentration 1000.0 nM
[11] = system: Epidermal growth factor receptor (Homo sapiens), P00533 [UNDEFINED MUTATION]; settings: Compound concentration 1000.0 nM
[12] = target: Ephrin type-A receptor 5 (Homo sapiens) (UniProt P54756); settings: Compound concentration 1000.0 nM
[13] = target: Ephrin type-B receptor 1 (Homo sapiens) (UniProt P54762); settings: Compound concentration 1000.0 nM
[14] = system: eIF-2-alpha kinase GCN2 (Homo sapiens), Q9P2K8 [S808G]; settings: Compound concentration 1000.0 nM
[15] = target: G protein-coupled receptor kinase 3 (Homo sapiens) (UniProt P35626); settings: Compound concentration 1000.0 nM
[16] = target: G protein-coupled receptor kinase 4 (Homo sapiens) (UniProt P32298); settings: Compound concentration 1000.0 nM
[17] = target: Hormonally up-regulated neu tumor-associated kinase (Homo sapiens) (UniProt P57058); settings: Compound concentration 1000.0 nM
[18] = target: Serine/threonine-protein kinase LATS1 (Homo sapiens) (UniProt O95835); settings: Compound concentration 1000.0 nM
[19] = target: LIM domain kinase 1 (Homo sapiens) (UniProt P53667); settings: Compound concentration 1000.0 nM
[20] = target: Serine/threonine-protein kinase 10 (Homo sapiens) (UniProt O94804); settings: Compound concentration 1000.0 nM
[21] = target: Mitogen-activated protein kinase kinase kinase 2 (Homo sapiens) (UniProt Q9Y2U5); settings: Compound concentration 1000.0 nM
[22] = target: Mitogen-activated protein kinase kinase kinase kinase 4 (Homo sapiens) (UniProt O95819); settings: Compound concentration 1000.0 nM
[23] = target: Serine/threonine-protein kinase MARK2 (Homo sapiens) (UniProt Q7KZI7); settings: Compound concentration 1000.0 nM
[24] = target: Dual specificity mitogen-activated protein kinase kinase 2 (Homo sapiens) (UniProt P36507); settings: Compound concentration 1000.0 nM
[25] = target: Maternal embryonic leucine zipper kinase (Homo sapiens) (UniProt Q14680); settings: Compound concentration 1000.0 nM
[26] = target: Hepatocyte growth factor receptor (Homo sapiens) (UniProt P08581); settings: Compound concentration 1000.0 nM
[27] = target: Mitogen-activated protein kinase kinase kinase 10 (Homo sapiens) (UniProt Q02779); settings: Compound concentration 1000.0 nM
[28] = target: Serine/threonine-protein kinase Nek2 (Homo sapiens) (UniProt P51955); settings: Compound concentration 1000.0 nM
[29] = target: Serine/threonine-protein kinase Nek4 (Homo sapiens) (UniProt P51957); settings: Compound concentration 1000.0 nM
[30] = target: Serine/threonine-protein kinase PAK 1 (Homo sapiens) (UniProt Q13153); settings: Compound concentration 1000.0 nM
[31] = system: Phosphatidylinositol 4,5-bisphosphate 3-kinase catalytic subunit alpha isoform (Homo sapiens), P42336 [C420R]; settings: Compound concentration 1000.0 nM
[32] = target: Protein kinase C theta type (Homo sapiens) (UniProt Q04759); settings: Compound concentration 1000.0 nM
[33] = target: Serine/threonine-protein kinase RIO3 (Homo sapiens) (UniProt O14730); settings: Compound concentration 1000.0 nM
[34] = target: Receptor-interacting serine/threonine-protein kinase 2 (Homo sapiens) (UniProt O43353); settings: Compound concentration 1000.0 nM
[35] = target: Serine/threonine-protein kinase Sgk3 (Homo sapiens) (UniProt Q96BR1); settings: Compound concentration 1000.0 nM
[36] = target: Serine/threonine-protein kinase ULK3 (Homo sapiens) (UniProt Q6PHR2); settings: Compound concentration 1000.0 nM
[37] = target: T1, D(4) dopamine receptor (Homo sapiens) (UniProt P21917); settings: Compound concentration 10.0 uM
T1 sequence (whole entry): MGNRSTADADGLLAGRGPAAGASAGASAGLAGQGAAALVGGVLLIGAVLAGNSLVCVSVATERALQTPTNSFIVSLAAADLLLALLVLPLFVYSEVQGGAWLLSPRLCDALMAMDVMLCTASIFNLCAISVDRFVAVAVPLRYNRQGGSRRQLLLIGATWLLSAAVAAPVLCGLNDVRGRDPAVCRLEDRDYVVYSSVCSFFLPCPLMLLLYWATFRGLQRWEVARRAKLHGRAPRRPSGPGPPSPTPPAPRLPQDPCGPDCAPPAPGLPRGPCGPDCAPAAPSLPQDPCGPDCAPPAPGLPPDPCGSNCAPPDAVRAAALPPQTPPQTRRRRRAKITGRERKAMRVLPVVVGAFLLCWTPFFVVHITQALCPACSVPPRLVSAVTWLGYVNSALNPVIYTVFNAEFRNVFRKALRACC

[38] = target: Beta-2 adrenergic receptor (Homo sapiens) (UniProt P07550); settings: Compound concentration 10.0 uM
[39] = target: Muscarinic acetylcholine receptor M4 (Homo sapiens) (UniProt P08173); settings: Compound concentration 10.0 uM
Muscarinic acetylcholine receptor M4 (Homo sapiens), sequence (P08173 whole entry): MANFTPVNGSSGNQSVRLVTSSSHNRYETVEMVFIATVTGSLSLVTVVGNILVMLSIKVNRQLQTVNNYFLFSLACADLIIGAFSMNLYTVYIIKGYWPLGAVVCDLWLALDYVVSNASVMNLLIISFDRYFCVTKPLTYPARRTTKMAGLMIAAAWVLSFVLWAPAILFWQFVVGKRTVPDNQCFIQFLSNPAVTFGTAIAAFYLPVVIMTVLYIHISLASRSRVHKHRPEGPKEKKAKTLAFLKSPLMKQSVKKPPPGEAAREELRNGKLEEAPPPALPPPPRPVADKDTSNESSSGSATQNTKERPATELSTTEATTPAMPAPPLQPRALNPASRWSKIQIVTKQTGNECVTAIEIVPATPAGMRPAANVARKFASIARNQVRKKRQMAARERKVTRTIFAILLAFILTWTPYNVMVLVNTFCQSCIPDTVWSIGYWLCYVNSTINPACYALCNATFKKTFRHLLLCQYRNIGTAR

Mitogen-activated protein kinase kinase kinase 2 (Homo sapiens), sequence (Q9Y2U5 whole entry): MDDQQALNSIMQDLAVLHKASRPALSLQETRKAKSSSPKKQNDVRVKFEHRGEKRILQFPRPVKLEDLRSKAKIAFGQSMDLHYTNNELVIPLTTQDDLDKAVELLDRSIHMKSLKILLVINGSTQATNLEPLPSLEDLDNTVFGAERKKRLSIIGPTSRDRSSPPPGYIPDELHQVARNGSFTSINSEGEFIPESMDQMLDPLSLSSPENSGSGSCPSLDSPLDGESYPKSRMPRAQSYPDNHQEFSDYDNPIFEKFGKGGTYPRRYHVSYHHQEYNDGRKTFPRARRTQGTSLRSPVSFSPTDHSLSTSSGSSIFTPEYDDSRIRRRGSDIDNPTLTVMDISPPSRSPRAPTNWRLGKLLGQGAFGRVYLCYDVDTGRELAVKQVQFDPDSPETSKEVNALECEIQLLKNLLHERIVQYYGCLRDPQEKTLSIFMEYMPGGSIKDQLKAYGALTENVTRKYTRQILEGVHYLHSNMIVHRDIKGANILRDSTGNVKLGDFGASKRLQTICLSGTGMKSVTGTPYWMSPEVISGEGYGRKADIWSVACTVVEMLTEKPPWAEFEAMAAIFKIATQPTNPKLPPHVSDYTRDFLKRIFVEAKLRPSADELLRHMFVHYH
Calcium/calmodulin-dependent protein kinase type II subunit delta (Homo sapiens), sequence (Q13557 whole entry): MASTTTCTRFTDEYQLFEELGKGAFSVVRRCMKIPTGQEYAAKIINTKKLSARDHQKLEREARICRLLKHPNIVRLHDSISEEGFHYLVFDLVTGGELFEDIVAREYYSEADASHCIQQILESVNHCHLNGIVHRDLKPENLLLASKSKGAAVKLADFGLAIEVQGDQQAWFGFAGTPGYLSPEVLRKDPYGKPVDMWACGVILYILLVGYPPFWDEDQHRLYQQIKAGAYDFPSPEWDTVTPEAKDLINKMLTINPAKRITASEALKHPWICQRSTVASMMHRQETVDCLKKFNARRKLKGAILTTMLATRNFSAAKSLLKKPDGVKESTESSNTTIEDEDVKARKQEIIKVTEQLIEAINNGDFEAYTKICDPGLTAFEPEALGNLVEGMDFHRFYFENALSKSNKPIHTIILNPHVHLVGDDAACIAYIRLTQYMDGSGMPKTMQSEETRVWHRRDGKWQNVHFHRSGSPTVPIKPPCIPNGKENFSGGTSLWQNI
Death-associated protein kinase 3 (Homo sapiens), sequence (O43293 whole entry, looked up): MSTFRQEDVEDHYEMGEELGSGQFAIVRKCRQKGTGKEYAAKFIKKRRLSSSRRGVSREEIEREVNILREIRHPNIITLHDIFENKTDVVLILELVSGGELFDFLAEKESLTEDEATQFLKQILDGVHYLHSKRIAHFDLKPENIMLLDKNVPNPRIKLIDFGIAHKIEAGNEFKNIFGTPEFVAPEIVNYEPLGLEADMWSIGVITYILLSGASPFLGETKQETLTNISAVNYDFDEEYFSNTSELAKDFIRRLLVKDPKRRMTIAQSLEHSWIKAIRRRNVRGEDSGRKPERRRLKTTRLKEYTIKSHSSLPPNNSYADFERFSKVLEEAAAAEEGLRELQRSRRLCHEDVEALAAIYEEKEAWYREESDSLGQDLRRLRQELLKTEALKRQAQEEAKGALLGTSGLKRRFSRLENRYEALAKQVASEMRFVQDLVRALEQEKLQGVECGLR
Protein kinase C theta type (Homo sapiens), sequence (Q04759 whole entry, looked up): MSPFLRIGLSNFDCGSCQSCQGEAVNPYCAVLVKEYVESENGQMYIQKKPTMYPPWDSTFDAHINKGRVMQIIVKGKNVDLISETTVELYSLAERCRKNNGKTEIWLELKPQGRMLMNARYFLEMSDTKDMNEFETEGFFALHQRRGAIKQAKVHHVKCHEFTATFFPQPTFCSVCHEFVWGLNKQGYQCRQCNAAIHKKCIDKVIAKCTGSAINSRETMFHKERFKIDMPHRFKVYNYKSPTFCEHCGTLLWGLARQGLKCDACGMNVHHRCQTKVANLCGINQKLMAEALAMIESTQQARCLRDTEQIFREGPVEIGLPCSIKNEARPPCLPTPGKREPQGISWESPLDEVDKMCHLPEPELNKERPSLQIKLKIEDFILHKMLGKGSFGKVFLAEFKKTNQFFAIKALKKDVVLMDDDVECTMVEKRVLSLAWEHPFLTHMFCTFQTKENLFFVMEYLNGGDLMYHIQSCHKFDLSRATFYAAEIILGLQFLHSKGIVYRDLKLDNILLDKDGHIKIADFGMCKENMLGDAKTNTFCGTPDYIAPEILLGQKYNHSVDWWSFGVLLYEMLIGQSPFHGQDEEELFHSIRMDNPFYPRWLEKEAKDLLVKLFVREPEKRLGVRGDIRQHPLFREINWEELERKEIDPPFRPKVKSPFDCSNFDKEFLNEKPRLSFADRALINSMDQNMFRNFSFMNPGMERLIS
Serine/threonine-protein kinase Sgk3 (Homo sapiens), sequence (Q96BR1 whole entry): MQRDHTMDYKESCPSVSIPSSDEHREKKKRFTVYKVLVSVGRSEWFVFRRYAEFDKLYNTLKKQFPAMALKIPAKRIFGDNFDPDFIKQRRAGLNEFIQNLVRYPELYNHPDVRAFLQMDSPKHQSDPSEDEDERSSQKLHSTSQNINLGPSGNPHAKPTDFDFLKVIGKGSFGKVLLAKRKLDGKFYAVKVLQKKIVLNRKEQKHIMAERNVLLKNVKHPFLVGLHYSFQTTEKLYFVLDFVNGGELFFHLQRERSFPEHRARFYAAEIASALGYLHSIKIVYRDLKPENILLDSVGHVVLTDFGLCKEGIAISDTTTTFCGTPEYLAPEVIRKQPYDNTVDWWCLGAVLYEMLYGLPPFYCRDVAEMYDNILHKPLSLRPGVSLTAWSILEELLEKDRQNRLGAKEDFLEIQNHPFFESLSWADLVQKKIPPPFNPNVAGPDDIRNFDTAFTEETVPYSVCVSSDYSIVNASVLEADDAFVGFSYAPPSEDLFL
Serine/threonine-protein kinase MARK2 (Homo sapiens), sequence (Q7KZI7 whole entry): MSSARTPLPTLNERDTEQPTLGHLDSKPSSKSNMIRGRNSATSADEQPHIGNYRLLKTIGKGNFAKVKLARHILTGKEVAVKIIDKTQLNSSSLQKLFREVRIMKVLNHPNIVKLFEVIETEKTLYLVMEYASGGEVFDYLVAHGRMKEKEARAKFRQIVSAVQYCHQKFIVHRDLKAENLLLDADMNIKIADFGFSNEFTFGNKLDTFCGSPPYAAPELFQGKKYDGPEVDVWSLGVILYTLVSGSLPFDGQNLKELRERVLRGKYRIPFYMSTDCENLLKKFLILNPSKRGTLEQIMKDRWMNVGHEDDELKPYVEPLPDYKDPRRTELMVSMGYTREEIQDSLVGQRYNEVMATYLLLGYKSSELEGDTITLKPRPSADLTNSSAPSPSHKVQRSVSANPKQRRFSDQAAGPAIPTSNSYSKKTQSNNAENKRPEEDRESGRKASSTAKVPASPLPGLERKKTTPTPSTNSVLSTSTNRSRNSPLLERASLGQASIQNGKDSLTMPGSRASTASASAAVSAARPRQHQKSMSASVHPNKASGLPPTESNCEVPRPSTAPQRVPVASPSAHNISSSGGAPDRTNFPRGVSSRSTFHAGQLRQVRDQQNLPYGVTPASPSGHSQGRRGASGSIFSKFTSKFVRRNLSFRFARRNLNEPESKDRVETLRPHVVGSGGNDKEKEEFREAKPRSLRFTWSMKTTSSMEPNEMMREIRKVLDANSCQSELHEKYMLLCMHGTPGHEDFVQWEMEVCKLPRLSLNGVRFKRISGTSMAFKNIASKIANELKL
Activin receptor type-1 (Homo sapiens), sequence (Q04771 whole entry): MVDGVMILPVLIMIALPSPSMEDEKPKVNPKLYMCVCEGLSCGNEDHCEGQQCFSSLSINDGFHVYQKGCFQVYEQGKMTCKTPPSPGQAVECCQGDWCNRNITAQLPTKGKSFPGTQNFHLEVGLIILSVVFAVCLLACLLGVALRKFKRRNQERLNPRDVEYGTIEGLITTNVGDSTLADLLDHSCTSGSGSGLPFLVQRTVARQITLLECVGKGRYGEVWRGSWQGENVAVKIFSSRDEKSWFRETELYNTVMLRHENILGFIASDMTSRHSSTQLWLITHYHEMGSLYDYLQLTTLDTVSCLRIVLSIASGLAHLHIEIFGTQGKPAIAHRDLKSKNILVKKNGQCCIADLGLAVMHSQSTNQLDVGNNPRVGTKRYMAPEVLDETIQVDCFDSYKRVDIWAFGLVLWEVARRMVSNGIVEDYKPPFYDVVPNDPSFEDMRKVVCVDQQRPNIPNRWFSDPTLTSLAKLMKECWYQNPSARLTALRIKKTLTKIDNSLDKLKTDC
Serine/threonine-protein kinase ULK3 (Homo sapiens), sequence (Q6PHR2 whole entry): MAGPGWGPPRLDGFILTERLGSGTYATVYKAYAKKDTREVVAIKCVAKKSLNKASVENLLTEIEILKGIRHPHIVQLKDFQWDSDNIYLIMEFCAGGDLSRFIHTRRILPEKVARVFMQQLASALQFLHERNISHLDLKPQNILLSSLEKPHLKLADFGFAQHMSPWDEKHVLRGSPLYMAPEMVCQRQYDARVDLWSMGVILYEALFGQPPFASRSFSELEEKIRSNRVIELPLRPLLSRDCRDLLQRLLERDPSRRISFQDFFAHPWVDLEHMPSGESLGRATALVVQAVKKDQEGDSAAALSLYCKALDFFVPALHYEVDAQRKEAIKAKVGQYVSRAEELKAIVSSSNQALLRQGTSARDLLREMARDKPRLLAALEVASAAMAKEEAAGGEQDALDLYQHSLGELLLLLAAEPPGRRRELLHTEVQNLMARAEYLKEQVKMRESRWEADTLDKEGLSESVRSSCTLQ

CS(=O)(=O)NCC[C@H](NC(=O)c1cncc2c1cnn2-c1ccc(F)cc1)c1ccnc(S(C)(=O)=O)c1 [BI 9307]
inactive: residual activity [1] 94% | residual activity [2] 93% | residual activity [3] 93% | residual activity [4] 100% | residual activity [5] 100% | residual activity [6] 100% | residual activity [7] 100% | residual activity [8] 80% | residual activity [9] 100% | residual activity [10] 100% | residual activity [11] 100% | residual activity [12] 100% | residual activity [13] 88% | residual activity [14] 100% | residual activity [15] 100% | residual activity [16] 100% | residual activity [17] 100% | residual activity [18] 100% | residual activity [19] 100% | residual activity [20] 100% | residual activity [21] 100% | residual activity [22] 86% | residual activity [23] 75% | residual activity [24] 100% | residual activity [25] 99% | residual activity [26] 79% | residual activity [27] 75% | residual activity [28] 97% | residual activity [29] 100% | residual activity [30] 88% | residual activity [31] 98% | residual activity [32] 100% | residual activity [33] 100% | residual activity [34] 100% | residual activity [35] 100% | residual activity [36] 100% | inhibition [37] -5.61% | inhibition [38] -5.93% | inhibition [39] 10.8%

CS(=O)(=O)c1cc(C2(NC(=O)c3cncc4c3cnn4-c3ccc(F)cc3)CC2)ccn1 [BI 639667]
inactive: residual activity [1] 79% | residual activity [2] 75% | residual activity [3] 95% | residual activity [4] 100% | residual activity [5] 100% | residual activity [6] 100% | residual activity [7] 76% | residual activity [8] 91% | residual activity [9] 98% | residual activity [10] 81% | residual activity [11] 100% | residual activity [12] 100% | residual activity [13] 91% | residual activity [14] 91% | residual activity [15] 100% | residual activity [16] 100% | residual activity [17] 100% | residual activity [18] 98% | residual activity [19] 100% | residual activity [20] 99% | residual activity [21] 84% | residual activity [22] 88% | residual activity [23] 100% | residual activity [24] 80% | residual activity [25] 100% | residual activity [26] 100% | residual activity [27] 99% | residual activity [28] 93% | residual activity [29] 100% | residual activity [30] 100% | residual activity [31] 83% | residual activity [32] 99% | residual activity [33] 100% | residual activity [34] 53% | residual activity [35] 100% | residual activity [36] 100% | inhibition [37] -1.14% | inhibition [38] -7.76% | inhibition [39] 13.3%
